What is called EC50 is the concentration at which the effect is half-maximal.

Where a name gives a salt, the structure may show the parent alone.

The first experiment relates to HBV rcDNA in HepDE19 cells. Briefly: HepDE19 assay with bDNA quantitation of HBV rcDNA. The experiment is classed as cell-based, hepatitis B virus (HBV). Conditions: HepDE19 cells, 7 day incubation, rcDNA by Quantigene 2.0 bDNA assay; read-out: DE-19 bDNA EC50. How it is done: HepDE19 Assay with bDNA Quantitation of HBV rcDNA:
HepDE19 cell culture system is a HepG2 (human hepatocarcinoma) derived cell line that supports HBV DNA replication and cccDNA formation in a tetracycline (Tet)-regulated manner and produces HBV rcDNA and a detectable reporter molecule dependent on the production and maintenance of cccDNA (Guo, et al., 2007, J. Virol. 81:12472-12484).
HepDE19 (50,000 cells/well) were plated in 96 well collagen-coated tissue-culture treated microtiter plates in DMEM/F12 medium supplemented with 10% fetal bovine serum, 1% penicillin-streptomycin and 1 μg/mL tetracycline and incubated in a humidified incubator at 37° C. and 5% CO2 overnight. Next day, the cells were switched to fresh medium without tetracycline and incubated for 4 hours at 37° C. and 5% CO2. The cells were treated with fresh Tet-free medium with compounds at concentrations starting at 25 μM and a serial, ½ log, 8-point, titration series in duplicate. The final DMSO concentration in the assay was 0.5%. The plates were incubated for 7 days in a humidified incubator at 37° C. and 5% CO2. Following a 7 day-incubation, the level of rcDNA present in the inhibitor-treated wells was measured using a Quantigene 2.0 bDNA assay kit (Affymetrix, Santa Clara, Calif.) with HBV specific custom probe set and manufacturers instructions. Concurrently, the effect of compounds on cell viability was assessed using replicate plates, plated at a density of 5,000 cells/well and incubated for 4 days, to determine the ATP content as a measure of cell viability using the cell-titer glo reagent (CTG; Promega Corporation, Madison, Wis.) as per manufacturer's instructions. The plates were read using a Victor luminescence plate reader (PerkinElmer Model 1420 Multilabel counter) and the relative luminescence units (RLU) data generated from each well was calculated as % inhibition of the untreated control wells and analyzed using XL-Fit module in Microsoft Excel to determine EC50 and EC90 (bDNA) and CC50 (CTG) values using a 4-parameter curve fitting algorithm.
Representative compounds of the invention were tested for their ability to inhibit formation of relaxed circular DNA (rcDNA) in a HepDE19 assay, as described elsewhere herein.
With `CN1CCC(NC(=O)OCc2ccccn2)c2cccc(C(=O)Nc3ccc(F)c(Cl)c3)c21` (single isomer, unassigned) [Compound 183, Pyridin-2-ylmethyl (8-((3-chloro-4-fluorophenyl)carbamoyl)-1-methyl-1,2,3,4-tetrahydroquinolin-4-yl)carbamate], the EC50 came to 720 nM.

As to `CNC(=O)CC1CCOc2c(C(=O)Nc3ccc(F)c(F)c3)cccc21` (single isomer, unassigned) [Compound 132, N-(3,4-difluorophenyl)-4-(2-(methylamino)-2-oxoethyl) chromane-8-carboxamide], the concentration for a half-maximal effect (EC50) was 21000 nM.

The same experiment, now with this note: Hepatitis B virus, HepDE19, 168 h, HepDE19 cells, 7 day incubation, rcDNA by Quantigene 2.0 bDNA assay; read-out: DE-19 bDNA EC50.
Turning to `O=C(Nc1ccc(F)c(F)c1)c1cccc2c1OCCC2c1ccncc1` (single isomer, unassigned) [Compound 69, N-(3,4-Difluorophenyl)-4-(pyridin-4-yl)chromane-8-carboxamide], the EC50 was 12000 nM.

`COC(=O)N[C@H]1CCOc2c(C(=O)Nc3ccc(F)c(OC)c3)ccc(F)c21` [Compound 128, Methyl (S)-(5-fluoro-8-((4-fluoro-3-methoxyphenyl)carbamoyl)chroman-4-yl)carbamate]: the EC50 came to 1200 nM.

Take `O=C(Nc1ccc(F)c(F)c1)c1cccc2c1OCCC2c1ccccn1` (stereo not shown) [Compound 68, N-(3,4-difluorophenyl)-4-(pyridin-2-yl)chromane-8-carboxamide]: the EC50 amounted to 3400 nM.

Turning to `O=C(N[C@H]1CCOc2c1ccc(F)c2C(=O)Nc1ccc(F)c(Cl)c1)OCc1ccccn1` [Compound 76, (S)-Pyridin-2-ylmethyl (8-((3-chloro-4-fluorophenyl)carbamoyl)-7-fluorochroman-4-yl)carbamate], the EC50 was determined as 1900 nM.

As to `O=C1CCOc2c1c(F)cc(F)c2C(=O)Nc1ccc(F)c(F)c1` [Compound 110, N-(3,4-difluorophenyl)-5,7-difluoro-4-oxochromane-8-carboxamide], the EC50 amounted to 1600 nM.

For `Nc1cc(C(=O)Nc2ccc(F)c(F)c2)c2c(c1)[C@@H](NC(=O)OCc1ccccn1)CCO2` [Compound 157, Pyridin-2-ylmethyl (S)-(6-amino-8-((3,4-difluorophenyl)carbamoyl)chroman-4-yl)carbamate], the EC50 came out at 11000 nM.

Consider `Cc1cnc(N[C@H]2CCOc3c(C(=O)Nc4ccc(F)c(F)c4)cccc32)nc1` [Compound 58, (S)—N-(3,4-Difluorophenyl)-4-((5-methylpyrimidin-2-yl)amino)chromane-8-carboxamide], for which the concentration for a half-maximal effect (EC50) turned out to be 9700 nM.

Regarding `COC(=O)N[C@H]1CCSc2c(C(=O)Nc3ccc(F)c(Cl)c3)ccc(F)c21` [Compound 174, Methyl (S)-(8-((3-chloro-4-fluorophenyl)carbamoyl)-5-fluorothiochroman-4-yl)carbamate], the EC50 worked out at 1600 nM.

In the case of `Cc1cc(NC(=O)c2ccc(F)c3c2OCC[C@@H]3NC(=O)OC[C@@H]2CCC(=O)N2C)ccc1F` [Compound 166, ((S)-1-Methyl-5-oxopyrrolidin-2-yl)methyl ((S)-5-fluoro-8-((4-fluoro-3-methylphenyl)carbamoyl)chroman-4-yl)carbamate], the EC50 stood at 1300 nM.

In the case of `CCC(=O)N[C@H]1CCOc2c(C(=O)Nc3ccc(F)c(F)c3)cccc21` [Compound 10, N-(3,4-Difluorophenyl)-4-propionamidochromane-8-carboxamide], the EC50 was found to be 5800 nM.

Take `COC(=O)N[C@H]1CCOc2c(C(=O)Nc3cc(F)c(F)c(F)c3)cccc21` [Compound 45, Methyl (S)-(8-((3,4,5-trifluorophenyl)carbamoyl)chroman-4-yl)carbamate]: the concentration giving a half-maximal response (EC50) was 1200 nM.

For the compound `O=C(NC1CCNc2c(C(=O)Nc3ccc(F)c(F)c3)cccc21)OCc1ccccn1` (stereo not shown) [Compound 175, pyridin-2-ylmethyl (8-((3,4-difluorophenyl)carbamoyl)-1,2,3,4-tetrahydroquinolin-4-yl)carbamate], the EC50 was found to be 12000 nM.

In the case of `COC(=O)N[C@H]1CCOc2c(C(=O)Nc3ccc(F)c(C)c3)cccc21` [Compound 50, Methyl (S)-(8-((4-fluoro-3-methylphenyl)carbamoyl)chroman-4-yl)carbamate], the EC50 came out at 650 nM.

Take `O=C1CC[C@H](COC(=O)N[C@H]2CCOc3c(C(=O)Nc4ccc(F)c(Cl)c4)ccc(F)c32)N1` [Compound 155, ((R)-5-Oxopyrrolidin-2-yl)methyl ((S)-8-((3-chloro-4-fluorophenyl)carbamoyl)-5-fluorochroman-4-yl)carbamate]: the concentration giving a half-maximal response (EC50) worked out at 1200 nM.

As to `O=C1CC[C@@H](COC(=O)N[C@H]2CCOc3c(C(=O)Nc4ccc(F)c(F)c4)cccc32)N1` [Compound 118, ((S)-5-Oxopyrrolidin-2-yl)methyl ((S)-8-((3,4-difluorophenyl)carbamoyl)chroman-4-yl)carbamate], the EC50 was 3600 nM.

In the case of `O=C(N[C@H]1CCOc2c(C(=O)Nc3ccc(F)c(F)c3)cccc21)c1cncs1` [Compound 12, N-(8-((3,4-difluorophenyl)carbamoyl)chroman-4-yl)thiazole-5-carboxamide], the EC50 came out at 8300 nM.

Consider `O=C(N[C@H]1CCOc2c(C(=O)Nc3ccc(F)c(F)c3)cccc21)OCc1ccncn1` [Compound 66, Pyrimidin-4-ylmethyl (S)-(8-((3,4-difluorophenyl)carbamoyl)chroman-4-yl)carbamate], for which the EC50 came out at 3500 nM.

On to `CN1CCC(COC(=O)N[C@H]2CCOc3c(C(=O)Nc4ccc(F)c(F)c4)cccc32)CC1` [Compound 95, (1-methylpiperidin-4-yl)methyl (S)-(8-((3,4-difluorophenyl)carbamoyl)chroman-4-yl)carbamate], for which the 50% effective concentration (EC50) amounted to 24000 nM.

With `O=C(Nc1ccc(F)c(F)c1)c1cccc2c1OCCC2c1cnccn1` (stereo not shown) [Compound 97, N-(3,4-difluorophenyl)-4-(pyrazin-2-yl)chromane-8-carboxamide], the EC50 amounted to 16000 nM.

Take `Cc1cc(NC(=O)c2ccc(F)c3c2OCC[C@@H]3NC(=O)NCCC(=O)O)ccc1F` [Compound 152, (S)-3-(3-(5-Fluoro-8-((4-fluoro-3-methylphenyl)carbamoyl)chroman-4-yl)ureido)propanoic acid]: the EC50 stood at 15000 nM.

Turning to `O=C1CC[C@@H](COC(=O)N[C@H]2CCOc3c(C(=O)Nc4ccc(F)c(Cl)c4)ccc(F)c32)N1` [Compound 156, ((S)-5-Oxopyrrolidin-2-yl)methyl ((S)-8-((3-chloro-4-fluorophenyl)carbamoyl)-5-fluorochroman-4-yl)carbamate], the concentration for a half-maximal effect (EC50) was found to be 740 nM.

Take `Cc1cc(NC(=O)c2ccc(F)c3c2OCC[C@@H]3NC(=O)OCc2ncccn2)ccc1F` [Compound 120, Pyrimidin-2-ylmethyl (S)-(5-fluoro-8-((4-fluoro-3-methylphenyl)carbamoyl)chroman-4-yl)carbamate]: the EC50 amounted to 540 nM.

Regarding `O=C(N[C@H]1CCOc2c(C(=O)Nc3ccc(F)c(F)c3)cccc21)OCc1cnccn1` [Compound 81, Pyrazin-2-ylmethyl (S)-(8-((3,4-difluorophenyl)carbamoyl)chroman-4-yl)carbamate], the EC50 worked out at 2400 nM.

Still in this experiment, the particulars now being: Hepatitis B virus, HepDE19, 168 h, read-out: DE-19 bDNA EC50, HepDE19 cells, 7 day incubation, rcDNA by Quantigene 2.0 bDNA assay.
On to `CNC(=O)N[C@H]1CCOc2c(C(=O)Nc3ccc(F)c(F)c3)c(F)cc(F)c21` [Compound 116, (S)—N-(3,4-Difluorophenyl)-5,7-difluoro-4-(3-methylureido)chromane-8-carboxamide], for which the EC50 turned out to be 1800 nM.

Regarding `COC(=O)N[C@H]1CCOc2c(C(=O)Nc3ccc(F)c(F)c3)ccc(F)c21` [Compound 38, methyl (S)-(8-((3,4-difluorophenyl)carbamoyl)-5-fluorochroman-4-yl)carbamate], the EC50 amounted to 570 nM.

As for `COc1ccnc(COC(=O)N[C@H]2CCOc3c(C(=O)Nc4ccc(F)c(F)c4)cccc32)c1` [Compound 80, (4-Methoxypyridin-2-yl)methyl (S)-(8-((3,4-difluorophenyl)carbamoyl)chroman-4-yl)carbamate hydrochloride], the EC50 was 2700 nM.

As to `O=C(N[C@H]1CCOc2c(C(=O)Nc3ccc(F)c(F)c3)cccc21)OCc1cccnc1` [Compound 23], the EC50 came to 3000 nM.

On to `COC(=O)N[C@H]1CCOc2c(C(=O)Nc3ccc(F)c(Cl)c3)ccc(F)c21` [Compound 91, Methyl (S)-(8-((3-chloro-4-fluorophenyl)carbamoyl)-5-fluorochroman-4-yl)carbamate], for which the EC50 stood at 200 nM.

As to `CNC(=O)N[C@H]1CCCc2c(C(=O)Nc3ccc(F)c(F)c3)cccc21` [Compound 185, (S)—N-(3,4-Difluorophenyl)-5-(3-methylureido)-5,6,7,8-tetrahydronaphthalene-1-carboxamide], the EC50 was 9800 nM.

The values are drawn from US11001564B2, “Substituted chromane-8-carboxamide compounds and analogues thereof, and methods using same” (priority 2016, dated 2021).
